Source: US12209142B2, “SARS-CoV-2 epitope-targeted peptide immunostimulants” (Institute for Systems Biology, priority 2020, dated 2025)
Entries after “also recorded” stand apart in the source; their conditions may differ. Bridges are numbered along the chain shown (N, C = ends). Where no end group is shown, it is not given here. [ ]: non-standard residue; d: D form. Lys(N3) = [N-]=[N+]=NCCCC[C@H](N)C(=O)O; Pra = C#CC[C@H](N)C(=O)O

Assays:
[1] = Isocratic point of PCCs (C18 prep-scale column elution); assay type: physicochemical
Description: The efficacy of AR-PCCs in vivo will not only depend on target binding, but also pharmacokinetic (PK) properties, of which clearance pathway is an important parameter. […] Modifications include single- and double-residue substitutions, residue removal, and the addition of non-ionic PEG and charged poly-arginine tags (Ri, where i represents the number of arginine). Results of this optimization are shown in FIG. 4B, which plots IP versus the affinity of the compound to MrkA, relative to cy(LLFFF) (SEQ ID NO:5).
PCC compounds were purified on a Waters Autopurification system, which isolated compounds based on MS peaks corresponding to protonated [M+1H]^+ and [M+2H]^2+, and/or sodium adducts [M+Na]^+ and [M+2Na]^2+. The isocratic points of PCCs were determined based on the elution of the compound from a C18 prep-scale column. Synthetic epitopes were either purified on the Waters Autopurification System, or by semi-preparative HPLC and then using matrix-assisted laser desorption/ionization mass spectroscopy to identify fractions with the desired m/z ratio. The resulting peptides were lyophilized, the yield determined by mass difference or UV-visible absorbance, and resuspended at a concentration of up to 10 mM peptide in DMSO. Peptides were stored at −80° C. before thawing for each use.

[2] = test system: MrkA-expressing K. pneumoniae cells; test: Whole-cell ELISA of biotinylated PCC binding; conditions: biotinylated PCC at 5 μM
[3] = target: T1, full-length recombinant MrkA protein (Klebsiella pneumoniae, UniProt P12267); test: Sandwich ELISA of PCC binding to full-length MrkA
T1 construct: purchased MyBiosource MBS1248970
Method: The screen yielded 26 hits (Table 2) that were sequenced, scaled up, and tested for binding to full-length recombinant MrkA in solution by single-point sandwich Enzyme-linked immunoassays (ELISAs) (FIG. 8). HPraGly is present before X1 in each peptide and Az4 follows X5 in each peptide.
An alanine scan was performed to establish which residues of cy(LLFFF) (SEQ ID NO:5) contribute most to MrkA binding. In this assay, a sandwich ELISA is used to quantify the affinity of several cy(LLFFF) (SEQ ID NO:5) analogues, in which one residue is substituted with an alanine, towards full-length MrkA protein. The ELISA results in FIG. 4 show lower signal for every alanine-substituted cy(LLFFF) (SEQ ID NO:5) analogue compared to unmodified cy(LLFFF) (SEQ ID NO:5), establishing that the native compound has the highest affinity. […] Thus, these two C-terminal phenylalanine residues (FIG. 3A, arrows in inset) play critical roles in MrkA binding, and are targets for modifications to improve binding. Another important detail of these alanine scan results is a strong dependence of MrkA binding on the residue position, independent of residue type. For example, cy(LLAFF) (SEQ ID NO:9) and cy(LLFFA) (SEQ ID NO:11) have very different binding affinities, despite having the same phenylalanine-to-alanine substitution.
In vitro ELISA assays. ELISA assays for MrkA-binding and epitope selectivity were performed on clear NeutrAvidin Coated High Capacity Plates (ThermoFisher, 15507). The buffer used for all washes and to dissolve all compounds was TBST+0.1% BSA (TBS+0.05% Tween 20+0.1% BSA, pH 7.3) and, unless otherwise stated, steps were conducted at room temperature. Each wash involved a brief 20 s agitation, and all conjugation, blocking, and incubation steps were performed with gentle agitation over the entire stated time period. The general procedure for an ELISA assay was: wash 3×200 μL/well, conjugate with 2 μM of biotinylated compound for 2 h at room temperature (100 μL/well), wash 3×200 μL/well, blocked overnight in 5 wt % milk at 4° C., wash […] with wash buffer, incubate with titrated compound (e.g., MrkA or epitope) for 1 h, […], incubate with primary antibody […] for 1 h (100 μL/well), wash 3×200 μL/well, incubate with 1:2,000 anti-rabbit secondary antibody-horseradish peroxidase conjugate (Cell signaling Technologies, 7074S) for 1 h, 3×200 μL/well, develop with the Microwell Peroxidase Substrate System (2-C) (SeraCare, 5120-0047) using 100 μL/well for 1-40 minutes, and quench using 1 M H2SO4 (aq.) at 100 μL/well. For MrkA binding assays, biotinylated PCCs were conjugated to the well surface, recombinant MrkA with an N-terminal 6×His-SUMO-tag (MyBiosource, MBS1248970) was titrated at the desired concentration, and the primary antibody was His-tag antibody, pAb, Rabbit (Genscript, A00174) at a 1:5,000 dilution. For epitope selectivity assays, biotinylated SynEps were conjugated, DNP-conjugated AR-PCCs were titrated at a desired concentration, and the primary antibody was anti-DNP antibody produced in Rabbit (Sigma-Aldrich, D9656) at a 1:8,000 dilution. […] For binding tests in the context of mouse sera, the “titrated compound” described in the steps above was dispersed in a solution containing the desired concentration of mouse serum.

[4] = test system: K. pneumoniae cells (strain BAA 1705); test: Gentamicin protection assay: phagocytosis and opsonophagocytic killing (OPK) by macrophages; assay type: cell-based, Klebsiella pneumoniae; conditions: macrophages harvested at 6 hrs
Method: FIGS. 7A and 7B show a gentamicin protection assay that evaluates EPI-driven phagocytosis and opsonophagocytic killing (OPK) of K. pneumoniae cells by murine bone-marrow-derived macrophages. FIG. 7A is a flow diagram depicting the assay used to evaluate EPI-driven opsonophagocytic killing (OPK) of K. pneumoniae cells. Briefly, K. pneumoniae cells (strain BAA 1705) opsonized by EPIs (AR-PCCs) and anti-DNP antibodies were incubated with macrophages for 1 or 24 h. Macrophages were lysed, and the lysate was plated to obtain bacterial colonies that were subsequently counted. FIG. 7B is a plot of colony counts for various samples subjected to the OPK assay. […] All EPIs (AR-PCCs) were used at a 5 μM concentration, measurements were conducted in triplicate, and error bars reflect standard deviations. cy(LLFFA) is SEQ ID NO:11.
It also tested whether DNP-conjugated EPIs could promote the opsonophagocytic killing (OPK) of K. pneumoniae by macrophages. This was tested by using an OPK assay. Briefly, K. pneumoniae cells were treated with EPI and then anti-DNP antibody before being exposed to macrophages for either 6 or 24 hours. During this incubation period, macrophages that recognize K. pneumoniae cells will phagocytose them, and phagocytosed bacteria will remain viable for up to 6 hours, but within 24 hours are rendered inviable by OPK. Thus, macrophages were isolated after 6 and 24 hours of incubation with K. pneumoniae, lysed them, and plated and grew the lysate, which yielded bacterial colonies that reflect the phagocytosis (at 6 hrs) or OPK (at 24 hrs) of bacteria.
Given that cy(LLFFF)-DNP (SEQ ID NO:5) recruits antibodies to K. pneumoniae surfaces, it was expected that K. pneumoniae opsonized in this manner would be more susceptible to phagocytosis by macrophages. AR-PCC-driven phagocytosis and OPK were quantified by a gentamicin protection assay, as depicted in FIG. 7A. For this assay, K. pneumoniae cells (strain BAA 1705) were treated with cy(LLFFF)-DNP (SEQ ID NO:5), opsonized by anti-DNP antibodies, and then incubated with murine bone-marrow-derived macrophages (BMDMs). BMDMs were subsequently exposed to a solution containing gentamicin, to which K. pneumoniae strain BAA 1705 is susceptible, to kill any extracellular bacteria. Phagocytosed bacteria remain viable inside BMDMs for at least 1 h, yet are rendered inviable after 24 h by OPK (FIG. 13). Macrophages harvested at 1 h and 24 h were lysed and plated to generate bacterial colonies, which were enumerated to quantify phagocytosis and OPK.
Opsonophagocytic killing (OPK) assays. Klebsiella pneumoniae BAA1705 was treated with DNP-PCCs followed by incubation with anti-DNP antibody, as described above in the “Cell-Based ELISAs” section. These opsonized bacteria were then used to infect BMDMs at a multiplicity of infection of 50 for 0.5 h at 37° C. Bacteria were then washed by using RPMI 1640 Media and BMDMs were left in cell culture medium containing gentamicin (100 μg/ml). After 1 h and 24 h BMDMs were washed to remove gentamicin and intracellular bacteria were harvested by lysing BMDMs in RPMI media containing 0.2% Triton X 100. Bacterial CFUs were enumerated by plating onto LB agar. Bacterial counts at 1 h indicated the degree of opsonization while those at 24 h served as a measure of microbicidal activity of macrophages. For these measurements, anti-MrkA antibody and K. pneumoniae antiserum were used at dilutions of 5 μg/mL each.

[5] = test system: K. pneumoniae cells (strain BAA 2146); test: Flow cytometry of AR-PCC-driven opsonization by anti-DNP antibodies; assay type: cell-based, Klebsiella pneumoniae
[6] = test system: K. pneumoniae cells, BAA 1705 and BAA 2146; test: Whole-cell ELISA of anti-DNP recruitment to bacterial cell surfaces; assay type: cell-based, Klebsiella pneumoniae; conditions: AR-PCC plus anti-DNP; cy(LLFFF)-DNP 5 or 10 μM, cy(HNGPT)-DNP 50 and 100 μM
Description: FIG. 12 is a plot of 450 nm absorbances obtained from a cell-based ELISA assay conducted on two strains of K. pneumoniae cells, BAA 1705 (black) and BAA 2146 (grey), that were either untreated or opsonized by EPIs (AR-PCCs) and/or antibodies. […] This establishes EPI-driven opsonization by cy(LLFFF)-DNP (SEQ ID NO:5). […] This indicates opsonization by cy(LLFFF)-DNP (SEQ ID NO:5) is specific and is driven by the ligand cy(LLFFF) (SEQ ID NO:5), rather than the Lys(DNP) moiety.
The protocol for detecting anti-DNP recruitment to bacterial cell surfaces is as follows. […] After washing, bacteria were incubated with HRP conjugated secondary antibody (Bio-Rad) at a dilution of 1:10,000 for 1 h at 37° C. Unbound antibody was washed off by using PBS-BSA and the cells were then developed by using TMB reagent. […] Anti-MrkA antibody was procured from Biorbyt (orb51318) and used at a concentration of 5 μg/mL, and K. pneumoniae antiserum was obtained from abcam (ab20947) and used at a concentration of 5 μg/mL.

[7] = test system: live or heat-killed MRSA cells; test: ELISA of PCC-driven SAv-HRP recruitment to MRSA cells; assay type: cell-based, Staphylococcus aureus; conditions: without or with 0.4 micrograms/mL tunicamycin
Method: FIG. 16A-16B are graphs showing PCC-driven recruitment of streptavidin-horseradish peroxidase (SAv-HRP) conjugate to live MRSA cells (FIG. 16A) or heat-killed MRSA cells (FIG. 16B) cultured under different antibiotic conditions via enzyme-linked Immunosorbent Assays (ELISAs). All tests were conducted by coating the antigen (MRSA cells) onto the wells of 96-well plates and then exposing the wells solutions containing biotinylated PCCs, then SAv-HRP, then HRP substrate followed by detection via absorbance at 450 nm. Absorbance values greater than the “no PCC” background indicate that several PCCs recruit SAv-HRP to either live cells (FIG. 16A) or heat-killed cells (FIG. 16B) cultured either without antibiotic (“−tunicamycin”, first three bars in each set) or with 0.4 micrograms/mL of tunicamycin (“+tunicamycin”, last three bars in each set), which reduces the expression of wall teichoic aids by MRSA. All measurements were conducted in triplicate and error bars reflect standard deviations. […]
The recruitment ability of selected PCCs was assessed by PCC-driven recruitment of streptavidin-horseradish peroxidase (SAv-HRP) conjugate to live MRSA cells (FIG. 16A) or heat-killed MRSA cells (FIG. 16B) cultured under different antibiotic conditions via enzyme-linked Immunosorbent Assays (ELISAs). […]

T1 sequence (P12267 23-202): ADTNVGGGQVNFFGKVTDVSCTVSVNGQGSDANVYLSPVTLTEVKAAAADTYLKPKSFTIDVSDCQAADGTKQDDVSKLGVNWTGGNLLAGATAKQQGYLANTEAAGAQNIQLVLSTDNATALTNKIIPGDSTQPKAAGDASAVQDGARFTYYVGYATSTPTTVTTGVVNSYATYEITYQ

With cy(LLFFF)+R6 the “reduction / improvement in IP versus cy(LLFFF)” value [1] was about 35%, the “isocratic point (IP)” value ([1]; elution from C18 prep-scale column) was about 40% and the “whole-cell ELISA signal, K. pneumoniae BAA 1705 and BAA 2146” value [2] was “similarly high selectivity towards MrkA-expressing cells”. For the same substance, the “binding of MrkA protein in mouse sera” value ([3]; MrkA protein at 250 nM in 10 and 100% mouse sera) was “binds MrkA protein in the context of sera; also recorded: bound MrkA protein in solutions of 10 and 100% mouse sera, albeit at lower levels versus 0% serum” and the “stronger affinity to MrkA over cy(LLFFF)” value ([3]; ratio of ELISA signals to cy(LLFFF) reference on same plate) was 22%.

With “cy(HNGPT): non-MrkA-binding dummy ligand ([Lys(N3)]HNGPT[Pra]; triazole 1-7) [reference compound]” the “whole-cell ELISA signal, K. pneumoniae BAA 1705 and BAA 2146” value [2] was “comparably lower signal; also recorded: no or minimal binding above baseline”, the “CFU at 6 hrs, DNP-conjugated EPI and anti-DNP antibody” value [4] was “did not promote any phagocytosis” and the “cell counts at 6 hrs, DNP-conjugated EPI without antibody” value [4] was ~35,000. For the same substance, the “fluorescence of cells (opsonization by anti-DNP)” value ([5]; cy(LLFFF)-DNP 1 or 5 μM, cy(HNGPT) control 50 μM, plus fluorescent anti-DNP) was “Slightly greater fluorescence”.

For “cy(HNGPT)-DNP: control AR-PCC, DNP-conjugated dummy ligand ([Lys(N3)]HNGPT[Pra]; triazole 1-7; also: DNP-conjugated) [reference compound]”, the “450 nm absorbance, anti-DNP recruitment to cells” value [6] was “Much smaller signals” and the “fluorescence intensity of cells (predominantly)” value ([5]; AR-PCC at 50 μM plus Alexafluor 488 anti-DNP, strain BAA 2146) was < 1.0×10^1.

In the case of “cy(kpdew): PCC to MRSA peptidoglycan, D-amino acids ([Lys(N3)][dK][dP][dD][dE][dW]X; bridge 1-7; not fully specified (residue 7, bridges); printed as cy(kpdew))”, the “SAv-HRP recruitment to MRSA cells” value [7] is reported as “Standout recruiting peptides”.

In the case of “cy(akkrp) ([Lys(N3)][dA][dK][dK][dR][dP]X; bridge 1-7; not fully specified (residue 7, bridges); printed as cy(akkrp))”, the “SAv-HRP recruitment to MRSA cells” value [7] is reported as “Standout recruiting peptides”.
